Source: PubChem BioAssay AID256 (DTP/NCI, 2004)
“And” between values parts separate entries of the source, which are not always exact repeats. Equal entries are not always repeated. Toxic doses and inconclusive results are not listed. The calls were made as follows: active = survival T/C of 150% or more; inactive = T/C below 125% in these data.

System: CD2F1 mice, L1210 leukemia ip, survival T/C
Assay: NCI In Vivo Anticancer Drug Screen. Data for tumor model L1210 Leukemia (intraperitoneal) in CD2F1 (CDF1) mice
Details: higher = longer survival
Outline: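 Ratio T/C, where T is the treated-group value and C the vehicle-dosed control value, from mice implanted with a transplantable tumor.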

[1] = endpoint: mean survival time, dose: 100.0 mg/kg/injection, schedule: Q01DX009 (ip), vehicle: saline with Tween-80
[2] = endpoint: mean survival time, dose: 100.0 mg/kg/injection, schedule: Q04DX003 (ip), vehicle: saline
[3] = endpoint: mean survival time, dose: 200.0 mg/kg/injection, schedule: Q01DX009 (ip), vehicle: saline with Tween-80
[4] = endpoint: mean survival time, dose: 200.0 mg/kg/injection, schedule: Q04DX003 (ip), vehicle: saline
[5] = endpoint: mean survival time, dose: 400.0 mg/kg/injection, schedule: Q01DX009 (ip), vehicle: saline with Tween-80
[6] = endpoint: mean survival time, dose: 400.0 mg/kg/injection, schedule: Q04DX003 (ip), vehicle: saline
[7] = endpoint: mean survival time, dose: 100.0 mg/kg/injection, schedule: Q01DX001 (ip), vehicle: saline with Tween-80
[8] = endpoint: mean survival time, dose: 200.0 mg/kg/injection, schedule: Q01DX001 (ip), vehicle: saline with Tween-80
[9] = endpoint: mean survival time, dose: 75.0 mg/kg/injection, schedule: Q01DX001 (ip), vehicle: saline
[10] = endpoint: mean survival time, dose: 150.0 mg/kg/injection, schedule: Q01DX001 (ip), vehicle: saline
[11] = endpoint: mean survival time, dose: 100.0 mg/kg/injection, schedule: Q01DX001 (ip), vehicle: saline
[12] = endpoint: mean survival time, dose: 200.0 mg/kg/injection, schedule: Q01DX001 (ip), vehicle: saline
[13] = endpoint: mean survival time, dose: 100.0 mg/kg/injection, schedule: Q04DX003 (ip), vehicle: saline with Tween-80
[14] = endpoint: mean survival time, dose: 200.0 mg/kg/injection, schedule: Q04DX003 (ip), vehicle: saline with Tween-80
[15] = endpoint: mean survival time, dose: 400.0 mg/kg/injection, schedule: Q04DX003 (ip), vehicle: saline with Tween-80
[16] = endpoint: mean survival time, dose: 50.0 mg/kg/injection, schedule: Q01DX009 (ip), vehicle: saline with Tween-80

Measured: T/C

O=C(O)C1OC1c1ccccc1 (configuration not stated)
inactive: [1] 107 % of control | [2] 91 % of control | [3] 98 % of control | [4] 100 % of control | [5] 101 % of control | [6] 97 % of control

CC[CH2][Sn]([CH2]CC)([CH2]CCC#N)[O]C(C)=O
inactive: endpoint: mean survival time, dose: 0.09 mg/kg/injection, schedule: Q01DX009 (ip), vehicle: saline 97 % of control | endpoint: mean survival time, dose: 0.19 mg/kg/injection, schedule: Q01DX009 (ip), vehicle: saline 101 % of control | endpoint: mean survival time, dose: 0.39 mg/kg/injection, schedule: Q01DX009 (ip), vehicle: saline 100 % of control and 105 % of control | endpoint: mean survival time, dose: 1.56 mg/kg/injection, schedule: Q01DX009 (ip), vehicle: saline 103 % of control

CCCCOC(=O)c1cc([N+](=O)[O-])c(Sc2ncnc3nc[nH]c23)c([N+](=O)[O-])c1
inactive: endpoint: mean survival time, dose: 0.63 mg/kg/injection, schedule: Q01DX005 (ip), vehicle: other 106 % of control | endpoint: mean survival time, dose: 1.25 mg/kg/injection, schedule: Q01DX005 (ip), vehicle: other 104 % of control | endpoint: mean survival time, dose: 2.5 mg/kg/injection, schedule: Q01DX005 (ip), vehicle: other 106 % of control | endpoint: mean survival time, dose: 5.0 mg/kg/injection, schedule: Q01DX005 (ip), vehicle: other 106 % of control | endpoint: mean survival time, dose: 10.0 mg/kg/injection, schedule: Q01DX005 (ip), vehicle: other 114 % of control | endpoint: mean survival time, dose: 15.0 mg/kg/injection, schedule: Q01DX005 (ip), vehicle: other 120 % of control

[CH3][Sn]([CH3])([Cl])[S]CCN
inactive: endpoint: median survival time, dose: 3.12 mg/kg/injection, schedule: Q01DX009 (ip), vehicle: saline 107 % of control | endpoint: median survival time, dose: 6.25 mg/kg/injection, schedule: Q01DX009 (ip), vehicle: saline 101 % of control | endpoint: median survival time, dose: 12.5 mg/kg/injection, schedule: Q01DX009 (ip), vehicle: saline 109 % of control | endpoint: median survival time, dose: 25.0 mg/kg/injection, schedule: Q01DX009 (ip), vehicle: saline 111 % of control | endpoint: median survival time, dose: 50.0 mg/kg/injection, schedule: Q01DX009 (ip), vehicle: saline 114 % of control

O=S(=O)(c1ccc(Cl)cc1)N(Cl)Cl
inactive: [7] 103 % of control | [8] 101 % of control

O=[N+]([O-])c1ccc(Oc2nc(Cl)nc(Oc3ccc([N+](=O)[O-])cc3)n2)cc1
inactive: endpoint: mean survival time, dose: 25.0 mg/kg/injection, schedule: Q04DX003 (ip), vehicle: Klucel (hydroxypropylcellulose) (HPC) 93 % of control | endpoint: mean survival time, dose: 50.0 mg/kg/injection, schedule: Q04DX003 (ip), vehicle: Klucel (hydroxypropylcellulose) (HPC) 93 % of control | endpoint: mean survival time, dose: 100.0 mg/kg/injection, schedule: Q04DX003 (ip), vehicle: Klucel (hydroxypropylcellulose) (HPC) 86 % of control

CCCCCCCCCCCCCCCOc1ccc(OCCCCCCCCCCCCCC)cc1
inactive: [8] 89 % of control | endpoint: mean survival time, dose: 400.0 mg/kg/injection, schedule: Q01DX001 (ip), vehicle: saline with Tween-80 88 % of control

CCOP(=O)(OCC)C(C)OC (configuration not stated)
inactive: [2] 97 % of control | [4] 108 % of control | [6] 97 % of control

CC(=O)C(CN(C)C)c1ccccc1 (configuration not stated)
inactive: [2] 95 % of control | [4] 107 % of control

CN1CCN(CC(=O)N2c3ccccc3Sc3cc4ccccc4cc32)CC1
inactive: [9] 101 % of control | [10] 108 % of control | endpoint: mean survival time, dose: 300.0 mg/kg/injection, schedule: Q01DX001 (ip), vehicle: saline 96 % of control

c1ccc2[nH]c(C3CCCCN3)cc2c1 (configuration not stated)
inactive: [11] 101 % of control | [12] 96 % of control

CCCCCC[Se][Se]CCCCCC
inactive: endpoint: median survival time, dose: 1.56 mg/kg/injection, schedule: Q01DX009 (ip), vehicle: Klucel (hydroxypropylcellulose) (HPC) 98 % of control | endpoint: median survival time, dose: 3.12 mg/kg/injection, schedule: Q01DX009 (ip), vehicle: Klucel (hydroxypropylcellulose) (HPC) 100 % of control | endpoint: median survival time, dose: 6.25 mg/kg/injection, schedule: Q01DX009 (ip), vehicle: Klucel (hydroxypropylcellulose) (HPC) 101 % of control | endpoint: median survival time, dose: 12.5 mg/kg/injection, schedule: Q01DX009 (ip), vehicle: Klucel (hydroxypropylcellulose) (HPC) 97 % of control

NC1=C(Cl)C(=O)c2ccccc2C1=O
inactive: [13] 102 % of control

CC1(C)OC2C(C3N(c4ccccc4)CCN3c3ccccc3)OC(n3ccc(=O)[nH]c3=O)C2O1 (configuration not stated)
inactive: endpoint: mean survival time, dose: 12.5 mg/kg/injection, schedule: Q01DX005 (ip), vehicle: distilled water + Tween-80 97 % of control | endpoint: mean survival time, dose: 25.0 mg/kg/injection, schedule: Q01DX005 (ip), vehicle: distilled water + Tween-80 94 % of control | endpoint: mean survival time, dose: 50.0 mg/kg/injection, schedule: Q01DX005 (ip), vehicle: distilled water + Tween-80 94 % of control | endpoint: mean survival time, dose: 100.0 mg/kg/injection, schedule: Q01DX005 (ip), vehicle: distilled water + Tween-80 91 % of control | endpoint: mean survival time, dose: 200.0 mg/kg/injection, schedule: Q01DX005 (ip), vehicle: distilled water + Tween-80 96 % of control

CCCCCCCSc1nc2ccccc2s1
inactive: endpoint: mean survival time, dose: 100.0 mg/kg/injection, schedule: Q04DX002 (ip), vehicle: saline with Tween-80 95 % of control | endpoint: mean survival time, dose: 200.0 mg/kg/injection, schedule: Q04DX002 (ip), vehicle: saline with Tween-80 98 % of control | endpoint: mean survival time, dose: 400.0 mg/kg/injection, schedule: Q04DX002 (ip), vehicle: saline with Tween-80 90 % of control

O=C(O)C1C2OC(C(Br)C2Br)C1C(=O)O (configuration not stated)
inactive: endpoint: mean survival time, dose: 50.0 mg/kg/injection, schedule: Q01DX009 (ip), vehicle: saline 102 % of control | endpoint: mean survival time, dose: 100.0 mg/kg/injection, schedule: Q01DX009 (ip), vehicle: saline 104 % of control

COc1ccc([Si](F)(c2ccc(OC)cc2)c2ccc(OC)cc2)cc1
inactive: [1] 100 % of control | [13] 95 % of control | [3] 94 % of control | [14] 93 % of control | [5] 93 % of control | [15] 90 % of control

Cc1cc(C)c(C(=O)CC(C)C)c(C)c1
inactive: [11] 104 % of control | [12] 104 % of control | endpoint: mean survival time, dose: 400.0 mg/kg/injection, schedule: Q01DX001 (ip), vehicle: saline 104 % of control

O=C1NC(=O)C(Br)C(=O)N1
inactive: [9] 102 % of control | [10] 100 % of control

CC(CCCOS(C)(=O)=O)OS(C)(=O)=O (configuration not stated)
inactive: endpoint: mean survival time, dose: 25.0 mg/kg/injection, schedule: Q04DX002 (ip), vehicle: Klucel (hydroxypropylcellulose) (HPC) 105 % of control | endpoint: mean survival time, dose: 50.0 mg/kg/injection, schedule: Q04DX002 (ip), vehicle: Klucel (hydroxypropylcellulose) (HPC) 108 % of control | endpoint: mean survival time, dose: 100.0 mg/kg/injection, schedule: Q04DX002 (ip), vehicle: Klucel (hydroxypropylcellulose) (HPC) 94 % of control

O=c1[nH]cc(C(O)Cc2ccccc2)c(=O)[nH]1 (configuration not stated)
inactive: [1] 97 % of control | [13] 104 % of control | [3] 100 % of control | [14] 94 % of control | [5] 97 % of control | [15] 98 % of control

CN(C)C1=NC1(C)C.CN(C)C1=NC1(C)C.[Cl][Pd][Cl]
inactive: endpoint: mean survival time, dose: 3.13 mg/kg/injection, schedule: Q04DX003 (ip), vehicle: distilled water + Tween-80 96 % of control | endpoint: mean survival time, dose: 6.25 mg/kg/injection, schedule: Q04DX003 (ip), vehicle: distilled water + Tween-80 101 % of control | endpoint: mean survival time, dose: 12.5 mg/kg/injection, schedule: Q04DX003 (ip), vehicle: distilled water + Tween-80 96 % of control | endpoint: mean survival time, dose: 25.0 mg/kg/injection, schedule: Q04DX003 (ip), vehicle: distilled water + Tween-80 105 % of control | endpoint: mean survival time, dose: 50.0 mg/kg/injection, schedule: Q04DX003 (ip), vehicle: distilled water + Tween-80 101 % of control | endpoint: mean survival time, dose: 100.0 mg/kg/injection, schedule: Q04DX003 (ip), vehicle: distilled water + Tween-80 114 % of control

CC(=O)c1cccc([N+](=O)[O-])c1
inactive: endpoint: mean survival time, dose: 100.0 mg/kg/injection, schedule: Q01DX009 (ip), vehicle: other 105 % of control | endpoint: mean survival time, dose: 200.0 mg/kg/injection, schedule: Q01DX009 (ip), vehicle: other 97 % of control | endpoint: mean survival time, dose: 400.0 mg/kg/injection, schedule: Q01DX009 (ip), vehicle: other 102 % of control

O=C(Nc1ccc(Br)cn1)Nc1cccc(Cl)c1Cl
inactive: [16] 94 % of control | [1] 101 % of control | [3] 105 % of control

COB1OB(OC)OB(OC)O1
inactive: [16] 90 % of control | [1] 93 % of control | [3] 93 % of control | [5] 93 % of control

ClCC(Cl)C(Cl)CCl (configuration not stated)
inactive: endpoint: mean survival time, dose: 50.0 mg/kg/injection, schedule: Q01DX001 (ip), vehicle: saline with Tween-80 95 % of control | [7] 109 % of control | [8] 86 % of control
